Measurements taken from article doi:10.1101/504811v1 (biorxiv, 2018).

Biological target: T1, MPH-wt (Pseudomonas sp. WBC-3, UniProt Q841S6)
T1 sequence (Q841S6 36-331): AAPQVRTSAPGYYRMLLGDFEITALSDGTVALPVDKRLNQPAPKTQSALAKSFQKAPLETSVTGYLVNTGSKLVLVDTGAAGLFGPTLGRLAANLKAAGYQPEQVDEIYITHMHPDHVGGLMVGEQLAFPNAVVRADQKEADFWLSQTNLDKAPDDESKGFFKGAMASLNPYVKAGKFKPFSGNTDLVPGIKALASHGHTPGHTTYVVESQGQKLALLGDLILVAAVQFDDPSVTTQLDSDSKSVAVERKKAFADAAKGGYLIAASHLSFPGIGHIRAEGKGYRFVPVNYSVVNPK
Assay: hydrolysis kinetics, purified enzyme
Assay type: biochemical

For O=C1CCc2ccccc2O1 [dihydrocoumarin], the KM was “only moderate DHCH activity”.
